Drawing on ChEMBL document CHEMBL1146842, “Design, synthesis, and biological evaluations of novel quinolones as HIV-1 non-nucleoside reverse transcriptase inhibitors” (Bioorg Med Chem Lett, 2006), this text covers EC50 and CC50 for five molecules.

Test [1] relates to Human immunodeficiency virus 1. The test is described as follows: Antiviral activity against HIV1 L100I mutant. In kind it is functional, organism-based.
For test [2], the system named is Human immunodeficiency virus 1. The test is described as follows: Antiviral activity against HIV1. In kind it is functional, organism-based.
Test [3] relates to Human immunodeficiency virus 1. Briefly: Antiviral activity against HIV1 V179E mutant. It counts as functional, organism-based.
Test [4] relates to Human immunodeficiency virus 1. Briefly: Antiviral activity against HIV1 K103N mutant. It counts as functional, organism-based.
In another test the test system is HEK293. The test is described as follows: Cytotoxicity against HEK293T cells. It counts as functional. Particulars: Homo sapiens.
Test [5] has as its system Human immunodeficiency virus 1. Briefly: Antiviral activity against HIV1 V106A mutant. It counts as functional, organism-based.
Test [6] has as its system Human immunodeficiency virus 1. Briefly: Antiviral activity against HIV1 E138K mutant. In kind it is functional, organism-based.
The test system of test [7] is Human immunodeficiency virus 1. The test is described as follows: Antiviral activity against HIV1 Y181S mutant. It counts as functional, organism-based.
Test [8] deals with Human immunodeficiency virus 1. The test is described as follows: Antiviral activity against HIV1 I135V mutant. In kind it is functional, organism-based.
Test [9] concerns Human immunodeficiency virus 1. The test is described as follows: Antiviral activity against HIV1 Y188L mutant. In kind it is functional, organism-based.
In test [10] the test system is Human immunodeficiency virus 1. Briefly: Antiviral activity against HIV1 Y181H mutant. In kind it is functional, organism-based.
The subject of test [11] is Human immunodeficiency virus 1. Briefly: Antiviral activity against HIV1 F227L mutant. It counts as functional, organism-based.
Test [12] has as its system Human immunodeficiency virus 1. Briefly: Antiviral activity against HIV1 Y181C mutant. It counts as functional, organism-based.

Bounds are passed on as bounds.

Usually EC50 stands for the concentration that produces a half-maximal response. Low readings indicate greater potency, high ones weaker potency. What is called CC50 is the concentration giving 50% cytotoxicity. High values mean lower toxicity to the cells, low ones greater toxicity to the cells.

Take `CCCCC12CC1(COC)C(=O)Nc1ccc(Cl)cc12` (stereo not given): the EC50 in test [1] amounted to 0.033 µM; in [2], 0.045 µM; in test [3] it was 0.721 µM; in test [4], 2.92 µM; in [5], 0.726 µM; in [6], 0.042 µM. Further, the EC50 in [7] is 2.7 µM; in test [8], 0.046 µM; in test [9], above 10 µM; in test [10] it was 0.121 µM; in test [11], 0.02 µM; in [12], 5.03 µM. The same molecule yielded a CC50 with HEK293 above 10 µM.
As for `CCCCC12CC1(COC(C)=O)C(=O)Nc1ccc(Cl)cc12` (stereo not given), the EC50 in [1] amounted to 0.045 µM; in test [2], 0.037 µM; in test [3], 0.735 µM; in test [4], 2.62 µM; in test [5], 4.73 µM; in test [6] it was 0.054 µM. The EC50 in test [7] is 2.35 µM; in [8], 0.064 µM; in test [9], above 10 µM; in [10], 0.059 µM; in [11], 0.001 µM; in test [12] it was 7.46 µM. In the test on HEK293, the CC50 was above 10 µM.
With `CCCCC12CC1(C(N)=O)C(=O)Nc1ccc(Cl)cc12` (stereo not given), the EC50 in test [1] was determined as 0.013 µM; in [2] it was 0.012 µM; in test [3] it was 0.439 µM; in [4] it was 3.83 µM; in test [5] it was 2.18 µM; in test [6], 0.046 µM. The half-maximal effective concentration (EC50) in test [7] was 2.52 µM; in test [8], 0.015 µM; in [9], above 10 µM; in [10] it was 0.063 µM; in [11] it was 0.001 µM; in test [12] it was 7.96 µM. This molecule also displayed a CC50 with HEK293 above 10 µM.
On to `C=CCOC(=O)C12CC1(CCCC)c1cc(Cl)ccc1NC2=O` (stereo not given), for which the EC50 in test [1] was found to be 0.001 µM; in [2], 0.001 µM; in [3], 0.233 µM; in test [4], 1.08 µM; in [5] it was 1.22 µM; in [6], 0.032 µM. Further, the EC50 was 0.932 µM in test [7]; 0.023 µM in test [8]; above 10 µM in [9]; 0.02 µM in test [10]; 0.001 µM in test [11]; 2.94 µM in test [12]. Also, in the test on HEK293, the CC50 is above 10 µM.
For the molecule `CCCCC12CC1(COCC)C(=O)Nc1ccc(Cl)cc12` (stereo not given), the EC50 in test [1] is 0.039 µM; in test [2] it was 0.065 µM; in test [3], 1.03 µM; in test [4], 3.96 µM; in test [5], 1.12 µM; in test [6], 0.094 µM. Further, the concentration giving a half-maximal response (EC50) in test [7] was 4.18 µM; in test [8] it was 0.074 µM; in test [9] it was above 10 µM; in [10], 0.216 µM; in test [11], 0.251 µM; in [12], 6.24 µM. Also, in the test with HEK293, the CC50 was above 10 µM.
